# Test results reported in ChEMBL document CHEMBL1201862, “PubChem BioAssay data set” (2004).
#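 Cells were grown in 96-well plates and exposed to each compound for 48 hours at five concentrations; endpoints were interpolated linearly between bracketing concentrations, or set to the highest concentration if not reached. GI50: concentration for 50% inhibition of growth.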 Calls of active or inactive are those of the source. Cut-off read from the data, not from the text of the source: active = GI50 up to about 1.1 µM and inactive = higher.
# Experiments:
# Test in all cases: NCI tumour cell line growth inhibition, 48 h
# NCI-H522 = tested on: NCI-H522
# DU-145 = tested on: DU-145
# SW-620 = tested on: SW-620
# NCI-H23 = tested on: NCI-H23
# LOX IMVI = tested on: LOX IMVI
# UACC-62 = tested on: UACC-62
# T47D = tested on: T47D
# UO-31 = tested on: UO-31
# BT-549 = tested on: BT-549
# MDA-N = tested on: MDA-N
# SK-MEL-2 = tested on: SK-MEL-2
# CAKI-1 = tested on: CAKI-1
# KM12 = tested on: KM12
# SNB-19 = tested on: SNB-19
# HT-29 = tested on: HT-29
# NCI/ADR-RES = tested on: NCI/ADR-RES
# SR = tested on: SR
# Malme-3M = tested on: Malme-3M
# OVCAR-3 = tested on: OVCAR-3
# OVCAR-5 = tested on: OVCAR-5
# HCT-15 = tested on: HCT-15
# MDA-MB-435 = tested on: MDA-MB-435
# 786-0 = tested on: 786-0
# A549 = tested on: A549
# NCI-H226 = tested on: NCI-H226
# OVCAR-4 = tested on: OVCAR-4
# MDA-MB-231 = tested on: MDA-MB-231
# UACC-257 = tested on: UACC-257
# K562 = tested on: K562
# MOLT-4 = tested on: MOLT-4
# HCC 2998 = tested on: HCC 2998
# SK-OV-3 = tested on: SK-OV-3
# Hs-578T = tested on: Hs-578T
# TK-10 = tested on: TK-10
# PC-3 = tested on: PC-3
# SN12C = tested on: SN12C
# SF-295 = tested on: SF-295
# HOP-92 = tested on: HOP-92
# RPMI-8226 = tested on: RPMI-8226
# IGROV-1 = tested on: IGROV-1
# SK-MEL-5 = tested on: SK-MEL-5
# EKVX = tested on: EKVX
# COLO 205 = tested on: COLO 205
# U-251 = tested on: U-251
# OVCAR-8 = tested on: OVCAR-8
# M14 = tested on: M14
# ACHN = tested on: ACHN
# SF-268 = tested on: SF-268
# MCF7 = tested on: MCF7
# HL-60 = tested on: HL-60
# HCT-116 = tested on: HCT-116
# SF-539 = tested on: SF-539
# SNB-75 = tested on: SNB-75
# CCRF-CEM = tested on: CCRF-CEM
# HOP-62 = tested on: HOP-62
# A498 = tested on: A498
# SK-MEL-28 = tested on: SK-MEL-28
# NCI-H460 = tested on: NCI-H460
structure (smiles),measurement,setting,value
C/C(=N/OC(=O)c1cccc2c(=O)c3ccccc3[nH]c12)[C@H]1CC[C@H]2[C@@H]3CCC4=C/C(=N/OC(=O)c5cccc6c(=O)c7ccccc7[nH]c56)CC[C@]4(C)[C@H]3CC[C@]12C,GI50,NCI-H522,12.3 µM (inactive)
same,GI50,DU-145,22.7 µM (inactive)
same,GI50,SW-620,13.9 µM (inactive)
same,GI50,NCI-H23,15.5 µM (inactive)
same,GI50,LOX IMVI,12.9 µM (inactive)
same,GI50,UACC-62,14.1 µM (inactive)
same,GI50,T47D,14.5 µM (inactive)
same,GI50,UO-31,15 µM (inactive)
same,GI50,BT-549,17.7 µM (inactive)
same,GI50,MDA-N,14.1 µM (inactive)
same,GI50,SK-MEL-2,12.8 µM (inactive)
same,GI50,CAKI-1,21.2 µM (inactive)
same,GI50,KM12,15.2 µM (inactive)
same,GI50,SNB-19,18.2 µM (inactive)
same,GI50,HT-29,13.5 µM (inactive)
same,GI50,NCI/ADR-RES,20.4 µM (inactive)
same,GI50,SR,3.61 µM (inactive)
same,GI50,Malme-3M,22.2 µM (inactive)
same,GI50,OVCAR-3,17.1 µM (inactive)
same,GI50,OVCAR-5,17.4 µM (inactive)
same,GI50,HCT-15,14 µM
same,GI50,MDA-MB-435,15.5 µM (inactive)
same,GI50,786-0,18.5 µM (inactive)
same,GI50,A549,25.6 µM (inactive)
same,GI50,NCI-H226,20 µM (inactive)
same,GI50,OVCAR-4,34 µM (inactive)
same,GI50,MDA-MB-231,14.3 µM (inactive)
same,GI50,UACC-257,17.1 µM (inactive)
same,GI50,K562,4.97 µM (inactive)
same,GI50,MOLT-4,10.4 µM (inactive)
same,GI50,HCC 2998,14 µM (inactive)
same,GI50,SK-OV-3,27 µM (inactive)
same,GI50,Hs-578T,27.7 µM (inactive)
same,GI50,TK-10,17.8 µM (inactive)
same,GI50,PC-3,10.5 µM (inactive)
same,GI50,SN12C,14.7 µM (inactive)
same,GI50,SF-295,16.8 µM (inactive)
same,GI50,HOP-92,21.3 µM (inactive)
same,GI50,RPMI-8226,2.9 µM (inactive)
same,GI50,IGROV-1,14.4 µM (inactive)
same,GI50,SK-MEL-5,13.1 µM (inactive)
same,GI50,EKVX,10.6 µM (inactive)
same,GI50,COLO 205,15.8 µM (inactive)
same,GI50,U-251,15.8 µM (inactive)
same,GI50,OVCAR-8,15.7 µM (inactive)
same,GI50,M14,14.6 µM (inactive)
same,GI50,ACHN,16 µM (inactive)
same,GI50,SF-268,17 µM (inactive)
same,GI50,MCF7,11.2 µM (inactive)
same,GI50,HL-60,3.91 µM (inactive)
same,GI50,HCT-116,12.5 µM (inactive)
same,GI50,SF-539,15.1 µM (inactive)
same,GI50,SNB-75,29.9 µM (inactive)
same,GI50,CCRF-CEM,2.4 µM (inactive)
same,GI50,HOP-62,24.8 µM (inactive)
COCC1OC(N2C(=O)NC(=O)[C@@H]3C=C4CCCCC4=C[C@@H]32)C(OC)C1OC (some centres not stated),GI50,NCI-H522,> 100 µM (inactive)
same,GI50,DU-145,> 100 µM (inactive)
same,GI50,SW-620,> 100 µM (inactive)
same,GI50,LOX IMVI,> 100 µM (inactive)
same,GI50,UACC-62,> 100 µM (inactive)
same,GI50,T47D,> 100 µM (inactive)
same,GI50,UO-31,98.9 µM (inactive)
same,GI50,BT-549,> 100 µM (inactive)
same,GI50,MDA-N,> 100 µM (inactive)
same,GI50,SK-MEL-2,> 100 µM (inactive)
same,GI50,KM12,> 100 µM (inactive)
same,GI50,SNB-19,> 100 µM (inactive)
same,GI50,HT-29,> 100 µM (inactive)
same,GI50,NCI/ADR-RES,> 100 µM (inactive)
same,GI50,SR,19.1 µM (inactive)
same,GI50,Malme-3M,> 100 µM (inactive)
same,GI50,OVCAR-3,> 100 µM (inactive)
same,GI50,OVCAR-5,> 100 µM (inactive)
same,GI50,HCT-15,> 100 µM
same,GI50,MDA-MB-435,> 100 µM (inactive)
same,GI50,786-0,> 100 µM (inactive)
same,GI50,A549,> 100 µM (inactive)
same,GI50,NCI-H226,> 100 µM (inactive)
same,GI50,OVCAR-4,> 100 µM (inactive)
same,GI50,MDA-MB-231,> 100 µM (inactive)
same,GI50,UACC-257,> 100 µM (inactive)
same,GI50,K562,> 100 µM (inactive)
same,GI50,MOLT-4,> 100 µM (inactive)
same,GI50,SK-OV-3,> 100 µM (inactive)
same,GI50,Hs-578T,68.9 µM (inactive)
same,GI50,TK-10,> 100 µM (inactive)
same,GI50,PC-3,> 100 µM (inactive)
same,GI50,SN12C,> 100 µM (inactive)
same,GI50,SF-295,> 100 µM (inactive)
same,GI50,HOP-92,75 µM (inactive)
same,GI50,RPMI-8226,> 100 µM (inactive)
same,GI50,IGROV-1,> 100 µM (inactive)
same,GI50,A498,> 100 µM (inactive)
same,GI50,EKVX,> 100 µM (inactive)
same,GI50,U-251,> 100 µM (inactive)
same,GI50,OVCAR-8,> 100 µM (inactive)
same,GI50,M14,> 100 µM (inactive)
same,GI50,ACHN,> 100 µM (inactive)
same,GI50,SF-268,> 100 µM (inactive)
same,GI50,MCF7,> 100 µM (inactive)
same,GI50,HL-60,51.6 µM (inactive)
same,GI50,HCT-116,> 100 µM (inactive)
same,GI50,SF-539,> 100 µM (inactive)
same,GI50,SNB-75,> 100 µM (inactive)
same,GI50,HOP-62,> 100 µM (inactive)
same,GI50,SK-MEL-28,> 100 µM (inactive)
same,GI50,NCI-H460,> 100 µM (inactive)
